Patent US20250136578A1 (Kolm Therapeutics Inc., priority 2023, published 2025)
Read-outs that look alike come from different tables or passages of the source.

Assays:
AR / CBP ternary complex = AR / CBP ternary complex (Homo sapiens, UniProt P10275+Q92793); assay: Ternary complex formation assay (sandwich ELISA, AR capture, CBP antibody detection) in VCaP cell lysates; assay type: cell-based
Procedure, shortened: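 Sandwich ELISA: plates were coated with anti-AR antibody (AR441) and given lysates of VCaP cells treated 1.5 h with bifunctional compound in charcoal-stripped serum. Co-captured CBP or p300 was probed with rabbit mAbs and HRP secondary. Chemifluorescent signal (ex 570/em 585) was read at 0, 5 and 15 min.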

VCaP cells = assay: VCaP growth inhibition assay (CTG); assay type: cell-based; details: Homo sapiens, 216 h, 30 pM R1881, 9 days
Procedure, shortened: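 Growth was measured by CTG luminescence after a 9-day exposure of VCaP cells to compound (final 10 fM–100 nM, fivefold steps) in the presence of 30 pM final R1881, in phenol red-free DMEM/5% CSS. IC50 values were derived by nonlinear 4-parameter regression of RLU against concentration.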

[1] = read-out: Average Ternary Complex, treated 1.5 hours, rabbit CBP or p300 antibody detection
[2] = treated 1.5 hours, rabbit CBP or p300 antibody detection, average, read-out: Average Ternary Complex

Chain of AR / CBP ternary complex (P10275 whole entry): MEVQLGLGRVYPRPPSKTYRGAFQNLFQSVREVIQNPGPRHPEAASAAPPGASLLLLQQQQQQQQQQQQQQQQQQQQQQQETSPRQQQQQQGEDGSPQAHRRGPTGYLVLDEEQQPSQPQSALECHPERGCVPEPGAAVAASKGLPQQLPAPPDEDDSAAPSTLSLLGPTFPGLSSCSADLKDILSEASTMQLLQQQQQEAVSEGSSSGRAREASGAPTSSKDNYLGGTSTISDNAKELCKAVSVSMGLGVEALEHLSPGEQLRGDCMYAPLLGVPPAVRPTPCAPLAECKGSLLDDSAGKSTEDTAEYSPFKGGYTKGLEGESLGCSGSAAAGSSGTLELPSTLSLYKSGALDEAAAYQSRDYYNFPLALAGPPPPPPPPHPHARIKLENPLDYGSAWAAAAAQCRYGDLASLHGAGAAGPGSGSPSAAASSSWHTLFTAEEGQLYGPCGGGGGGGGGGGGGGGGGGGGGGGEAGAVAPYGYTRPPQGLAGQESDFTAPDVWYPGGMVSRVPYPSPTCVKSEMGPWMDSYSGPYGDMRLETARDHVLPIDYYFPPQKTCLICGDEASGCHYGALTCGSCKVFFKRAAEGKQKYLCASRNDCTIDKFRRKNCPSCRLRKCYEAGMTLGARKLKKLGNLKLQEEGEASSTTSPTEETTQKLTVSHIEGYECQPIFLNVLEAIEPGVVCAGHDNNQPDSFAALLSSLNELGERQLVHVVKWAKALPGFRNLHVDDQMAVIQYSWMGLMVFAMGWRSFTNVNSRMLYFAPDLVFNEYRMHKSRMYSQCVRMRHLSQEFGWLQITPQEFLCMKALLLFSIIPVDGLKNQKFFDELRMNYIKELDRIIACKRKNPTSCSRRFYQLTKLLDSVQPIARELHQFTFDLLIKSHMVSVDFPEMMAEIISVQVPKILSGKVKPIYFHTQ
Chain of AR / CBP ternary complex (Q92793 2-2442): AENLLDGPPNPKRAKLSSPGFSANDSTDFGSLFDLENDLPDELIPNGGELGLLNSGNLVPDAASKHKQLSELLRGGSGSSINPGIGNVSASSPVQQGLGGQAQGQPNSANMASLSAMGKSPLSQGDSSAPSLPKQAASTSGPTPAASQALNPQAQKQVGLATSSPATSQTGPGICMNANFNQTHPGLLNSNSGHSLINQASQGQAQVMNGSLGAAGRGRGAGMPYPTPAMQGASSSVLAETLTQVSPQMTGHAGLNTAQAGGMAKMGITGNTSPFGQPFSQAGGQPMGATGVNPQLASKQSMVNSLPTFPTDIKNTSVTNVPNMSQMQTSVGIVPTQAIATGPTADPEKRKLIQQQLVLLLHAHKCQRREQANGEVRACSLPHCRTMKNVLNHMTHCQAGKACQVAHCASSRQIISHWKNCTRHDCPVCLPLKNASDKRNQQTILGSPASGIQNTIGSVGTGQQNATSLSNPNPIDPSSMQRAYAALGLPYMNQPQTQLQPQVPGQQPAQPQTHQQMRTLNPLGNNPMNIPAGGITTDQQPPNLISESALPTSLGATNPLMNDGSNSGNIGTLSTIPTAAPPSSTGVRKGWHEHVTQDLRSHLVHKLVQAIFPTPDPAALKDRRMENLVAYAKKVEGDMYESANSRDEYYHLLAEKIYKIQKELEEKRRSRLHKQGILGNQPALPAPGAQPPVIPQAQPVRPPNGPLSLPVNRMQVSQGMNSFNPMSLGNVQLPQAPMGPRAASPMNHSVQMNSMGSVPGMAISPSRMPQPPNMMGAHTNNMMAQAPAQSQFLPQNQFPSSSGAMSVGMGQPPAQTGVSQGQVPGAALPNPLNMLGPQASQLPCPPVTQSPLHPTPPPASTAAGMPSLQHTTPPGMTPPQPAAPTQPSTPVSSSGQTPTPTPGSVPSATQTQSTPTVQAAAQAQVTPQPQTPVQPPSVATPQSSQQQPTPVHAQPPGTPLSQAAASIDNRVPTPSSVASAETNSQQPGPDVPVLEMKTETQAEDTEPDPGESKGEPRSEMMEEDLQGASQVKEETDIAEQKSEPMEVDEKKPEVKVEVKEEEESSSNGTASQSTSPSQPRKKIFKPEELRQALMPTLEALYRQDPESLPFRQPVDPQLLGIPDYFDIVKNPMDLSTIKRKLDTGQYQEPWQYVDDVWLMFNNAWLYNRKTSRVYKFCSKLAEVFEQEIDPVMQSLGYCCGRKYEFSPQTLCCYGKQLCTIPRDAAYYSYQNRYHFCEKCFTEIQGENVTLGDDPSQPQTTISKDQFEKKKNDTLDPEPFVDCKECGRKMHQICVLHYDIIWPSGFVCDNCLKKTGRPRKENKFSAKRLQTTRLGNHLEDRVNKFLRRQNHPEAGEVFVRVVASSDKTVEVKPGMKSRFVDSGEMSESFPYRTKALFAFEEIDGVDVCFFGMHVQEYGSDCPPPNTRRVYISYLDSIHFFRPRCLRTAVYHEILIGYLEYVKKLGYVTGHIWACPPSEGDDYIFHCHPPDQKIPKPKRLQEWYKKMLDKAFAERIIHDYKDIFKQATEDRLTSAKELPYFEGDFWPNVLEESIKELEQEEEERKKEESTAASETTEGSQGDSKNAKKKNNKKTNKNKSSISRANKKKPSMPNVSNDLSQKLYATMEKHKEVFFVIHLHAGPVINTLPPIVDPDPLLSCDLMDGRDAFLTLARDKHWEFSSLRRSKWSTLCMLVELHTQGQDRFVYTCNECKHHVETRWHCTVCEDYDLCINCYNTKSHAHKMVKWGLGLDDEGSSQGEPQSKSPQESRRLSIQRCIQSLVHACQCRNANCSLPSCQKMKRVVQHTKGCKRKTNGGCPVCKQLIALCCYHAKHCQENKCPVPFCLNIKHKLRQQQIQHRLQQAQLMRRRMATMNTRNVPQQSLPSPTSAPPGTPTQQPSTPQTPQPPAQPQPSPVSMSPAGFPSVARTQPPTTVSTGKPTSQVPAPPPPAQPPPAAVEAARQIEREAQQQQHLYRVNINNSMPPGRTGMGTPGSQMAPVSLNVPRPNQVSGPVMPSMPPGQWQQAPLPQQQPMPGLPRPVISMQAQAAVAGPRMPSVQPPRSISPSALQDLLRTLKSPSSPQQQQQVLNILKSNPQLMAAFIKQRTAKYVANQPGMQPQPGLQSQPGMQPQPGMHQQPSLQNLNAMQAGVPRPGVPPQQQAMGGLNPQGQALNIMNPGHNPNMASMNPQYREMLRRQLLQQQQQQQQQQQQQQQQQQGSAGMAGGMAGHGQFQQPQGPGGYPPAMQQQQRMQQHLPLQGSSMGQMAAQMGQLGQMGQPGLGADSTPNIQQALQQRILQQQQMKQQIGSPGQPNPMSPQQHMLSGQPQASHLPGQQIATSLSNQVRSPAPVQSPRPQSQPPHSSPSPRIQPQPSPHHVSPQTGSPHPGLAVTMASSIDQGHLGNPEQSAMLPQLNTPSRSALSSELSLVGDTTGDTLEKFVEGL

## CC(=O)N1CCc2c(c(-c3cccc4cc(-c5cnn(CC6CC7(C6)CN(c6ccc(C(=O)N[C@H]8CC[C@H](Oc9ccc(C#N)c(Cl)c9)CC8)nn6)C7)c5)ncc34)nn2C)C1 [Compound 47, 6-[6-[[4-[8-(5-acetyl-1-methyl-6,7-dihydro-4H-pyrazolo[4,3-c]pyridin-3-yl)-3-isoquinolyl]pyrazol-1-yl]methyl]-2-azaspiro[3.3]heptan-2-yl]-N-[4-(3-chloro-4-cyano-phenoxy)cyclohexyl]pyridazine-3-carboxamide]
AR / CBP ternary complex; [1]
  EC50: 1 to 10 nM
VCaP cells
  IC50: 0.1 to 1 nM

## CC(=O)N1CCc2c(c(-c3cccc4cc(-c5ccc(CCC6CC7(C6)CN(c6ccc(C(=O)N[C@H]8CC[C@H](Oc9ccc(C#N)c(Cl)c9)CC8)nn6)C7)nc5)ncc34)nn2C2CCOCC2)C1 [Compound 48]
AR / CBP ternary complex; [1]
  EC50: < 1 nM
VCaP cells
  IC50: ≤ 0.1 nM

## CC(=O)N1CCc2c(c(-c3cccc4cc(-c5cnn(CCC6CC7(C6)CN(c6ccc(C(=O)N[C@H]8CC[C@H](Oc9ccc(C#N)c(Cl)c9)CC8)nn6)C7)c5)ncc34)nn2C2CCOCC2)C1 [Compound 49, 6-[6-[2-[4-[8-(5-acetyl-1-tetrahydropyran-4-yl-6,7-dihydro-4H-pyrazolo[4,3-c]pyridin-3-yl)-3-isoquinolyl]pyrazol-1-yl]ethyl]-2-azaspiro[3.3]heptan-2-yl]-N-[4-(3-chloro-4-cyano-phenoxy)cyclohexyl]pyridazine3-carboxamide]
AR / CBP ternary complex; [2]
  EC50: < 1 nM
VCaP cells
  IC50: 0.1 to 1 nM

## CC(=O)N1CCc2c(c(-c3cccc4cc(-c5cnn(CCC6CC7(C6)CN(c6ccc(C(=O)N[C@H]8CC[C@H](Oc9ccc(C#N)c(Cl)c9)CC8)nn6)C7)c5)ncc34)nn2C)C1 [Compound 50, 6-[6-[2-[4-[8-(5-acetyl-1-methyl-6,7-dihydro-4H-pyrazolo[4,3-c]pyridin-3-yl)-3-isoquinolyl]pyrazol-1-yl]ethyl]-2-azaspiro[3.3]heptan-2-yl]-N-[4-(3-chloro-4-cyano-phenoxy)cyclohexyl]pyridazine-3-carboxamide]
AR / CBP ternary complex; [2]
  EC50: < 1 nM
VCaP cells
  IC50: ≤ 0.1 nM

## CC(=O)N1CCc2c(c(-c3cccc4cc(-c5ccc(CCC6CC7(C6)CN(c6ccc(C(=O)N[C@H]8CC[C@H](Oc9ccc(C#N)c(Cl)c9)CC8)nn6)C7)nc5)ncc34)nn2C)C1 [Compound 51, 6-[6-[2-[5-[8-(5-acetyl-1-methyl-6,7-dihydro-4H-pyrazolo[4,3-c]pyridin-3-yl)-3-isoquinolyl]-2-pyridyl]ethyl]-2-azaspiro[3.3]heptan-2-yl]-N-[4-(3-chloro-4-cyano-phenoxy)cyclohexyl]pyridazine-3-carboxamide]
AR / CBP ternary complex; [2]
  EC50: < 1 nM
VCaP cells
  IC50: 0.1 to 1 nM

## Cn1c(=O)n(C)c2cc(-c3cccc4cc(-c5ccc(CCC6CCN(c7ccc(C(=O)N[C@H]8CC[C@H](Oc9ccc(C#N)c(Cl)c9)CC8)nn7)CC6)nc5)ncc34)ccc21 [Compound 52, N-[4-(3-chloro-4-cyano-phenoxy)cyclohexyl]-6-[4-[2-[5-[8-(1,3-dimethyl-2-oxo-benzimidazol-5-yl)-3-isoquinolyl]-2-pyridyl]ethyl]-1-piperidyl]pyridazine-3-carboxamide]
AR / CBP ternary complex; [2]
  EC50: 1 to 10 nM
VCaP cells
  IC50: > 100 nM

## Cn1c(=O)n(C)c2cc(N3CCCc4cc(-c5ccc(CCC6CCN(c7ccc(C(=O)N[C@H]8CC[C@H](Oc9ccc(C#N)c(Cl)c9)CC8)nn7)CC6)nc5)c(C(F)F)cc43)ccc21 [Compound 53, N-[4-(3-chloro-4-cyano-phenoxy)cyclohexyl]-6-[4-[2-[5-[7-(difluoromethyl)-1-(1,3-dimethyl-2-oxo-benzimidazol-5-yl)-3,4-dihydro-2H-quinolin-6-yl]-2-pyridyl]ethyl]-1-piperidyl] pyridazine-3-carboxamide]
AR / CBP ternary complex; [1]
  EC50: < 1 nM
VCaP cells
  IC50: > 100 nM

## Cn1c(=O)n(C)c2cc(N3CCCc4cc(-c5ccc(CCC6CCN(c7ccc(C(=O)N[C@H]8CC[C@H](Oc9ccc(C#N)c(Cl)c9)CC8)nn7)CC6)nc5)ncc43)ccc21 [Compound 54, N-[4-(3-chloro-4-cyano-phenoxy)cyclohexyl]-6-[4-[2-[5-[1-(1,3-dimethyl-2-oxo-benzimidazol-5-yl)-3,4-dihydro-2H-1,7-naphthyridin-6-yl]-2-pyridyl]ethyl]-1-piperidyl] pyridazine-3-carboxamide]
AR / CBP ternary complex; [2]
  EC50: 1 to 10 nM
VCaP cells
  IC50: 0.1 to 1 nM

## Cn1c(=O)sc2ccc(-c3cccc4cc(-c5ccc(CCC6CCN(c7ccc(C(=O)N[C@H]8CC[C@H](Oc9ccc(C#N)c(Cl)c9)CC8)nn7)CC6)nc5)ncc34)cc21 [Compound 55, N-[4-(3-chloro-4-cyano-phenoxy)cyclohexyl]-6-[4-[2-[5-[8-(3-methyl-2-oxo-1,3-benzothiazol-5-yl)-3-isoquinolyl]-2-pyridyl]ethyl]-1-piperidyl]pyridazine-3-carboxamide]
AR / CBP ternary complex; [2]
  EC50: < 1 nM
VCaP cells
  IC50: > 100 nM

## Cn1c(=O)sc2ccc(N3CCCc4cc(-c5ccc(CCC6CCN(c7ccc(C(=O)N[C@H]8CC[C@H](Oc9ccc(C#N)c(Cl)c9)CC8)nn7)CC6)nc5)c(C(F)F)cc43)cc21 [Compound 56, N-[4-(3-chloro-4-cyano-phenoxy)cyclohexyl]-6-[4-[2-[5-[7-(difluoromethyl)-1-(3-methyl-2-oxo-1,3-benzothiazol-5-yl)-3,4-dihydro-2H-quinolin-6-yl]-2-pyridyl]ethyl]-1-piperidyl]pyridazine-3-carboxamide]
AR / CBP ternary complex; [2]
  EC50: 1 to 10 nM
VCaP cells
  IC50: > 100 nM

## Cn1c(=O)sc2ccc(N3CCCc4cc(-c5ccc(CCC6CCN(c7ccc(C(=O)N[C@H]8CC[C@H](Oc9ccc(C#N)c(Cl)c9)CC8)nn7)CC6)nc5)ncc43)cc21 [Compound 57, N-[4-(3-chloro-4-cyano-phenoxy)cyclohexyl]-6-[4-[2-[5-[1-(3-methyl-2-oxo-1,3-benzothiazol-5-yl)-3,4-dihydro-2H-1,7-naphthyridin-6-yl]-2-pyridyl]ethyl]-1-piperidyl]pyridazine-3-carboxamide]
AR / CBP ternary complex; [2]
  EC50: < 1 nM
VCaP cells
  IC50: 1 to 100 nM

## CN1C(=O)CCc2cc(-c3cccc4cc(-c5ccc(CCC6CCN(c7ccc(C(=O)N[C@H]8CC[C@H](Oc9ccc(C#N)c(Cl)c9)CC8)nn7)CC6)nc5)ncc34)ccc21 [Compound 58, N-[4-(3-chloro-4-cyano-phenoxy)cyclohexyl]-6-[4-[2-[5-[8-(1-methyl-2-oxo-3,4-dihydroquinolin-6-yl)-3-isoquinolyl]-2-pyridyl]ethyl]-1-piperidyl]pyridazine-3-carboxamide]
AR / CBP ternary complex; [2]
  EC50: 10 to 100 nM
VCaP cells
  IC50: > 100 nM

## CN1C(=O)CCc2cc(N3CCCc4cc(-c5ccc(CCC6CCN(c7ccc(C(=O)N[C@H]8CC[C@H](Oc9ccc(C#N)c(Cl)c9)CC8)nn7)CC6)nc5)c(C(F)F)cc43)ccc21 [Compound 59, N-[4-(3-chloro-4-cyano-phenoxy)cyclohexyl]-6-[4-[2-[5-[7-(difluoromethyl)-1-(1-methyl-2-oxo-3,4-dihydroquinolin-6-yl)-3,4-dihydro-2H-quinolin-6-yl]-2-pyridyl]ethyl]-1-piperidyl]pyridazine-3-carboxamide]
AR / CBP ternary complex; [2]
  EC50: > 100 nM
VCaP cells
  IC50: > 100 nM

## CN1C(=O)CCc2cc(N3CCCc4cc(-c5ccc(CCC6CCN(c7ccc(C(=O)N[C@H]8CC[C@H](Oc9ccc(C#N)c(Cl)c9)CC8)nn7)CC6)nc5)ncc43)ccc21 [Compound 60, N-[4-(3-chloro-4-cyano-phenoxy)cyclohexyl]-6-[4-[2-[5-[1-(1-methyl-2-oxo-3,4-dihydroquinolin-6-yl)-3,4-dihydro-2H-1,7-naphthyridin-6-yl]-2-pyridyl]ethyl]-1-piperidyl] pyridazine-3-carboxamide]
AR / CBP ternary complex; [2]
  EC50: > 100 nM
VCaP cells
  IC50: > 100 nM

## CC(=O)N1CCc2c(c(N3CCCc4cc(C#N)ccc43)nn2C2CCN(C(=O)C3CCN(c4ccc(C(=O)N[C@H]5CC[C@H](Oc6ccc(C#N)c(Cl)c6)CC5)nn4)CC3)CC2)C1 [Compound 61, 6-[4-[4-[5-acetyl-3-(6-cyano-3,4-dihydro-2H-quinolin-1-yl)-6,7-dihydro-4H-pyrazolo[4,3-c]pyridin-1-yl]piperidine-1-carbonyl]-1-piperidyl]-N-[4-(3-chloro-4-cyano-phenoxy)cyclohexyl]pyridazine-3-carboxamide]
AR / CBP ternary complex; [2]
  EC50: < 1 nM
VCaP cells
  IC50: ≤ 0.1 nM

## CC(=O)N1CCc2c(c(N3CCCc4ccc(C(F)F)cc43)nn2C2CCN(C(=O)C3CCN(c4ccc(C(=O)N[C@H]5CC[C@H](Oc6ccc(C#N)c(Cl)c6)CC5)nn4)CC3)CC2)C1 [Compound 62, 6-[4-[4-[5-acetyl-3-[7-(difluoromethyl)-3,4-dihydro-2H-quinolin-1-yl]-6,7-dihydro-4H-pyrazolo[4,3-c]pyridin-1-yl]piperidine-1-carbonyl]-1-piperidyl]-N-[4-(3-chloro-4-cyano-phenoxy)cyclohexyl]pyridazine-3-carboxamide]
AR / CBP ternary complex; [2]
  EC50: < 1 nM
VCaP cells
  IC50: ≤ 0.1 nM

## CC(=O)N1CCc2c(c(-c3cccc4cc(-c5cnn(CCOC6CC7(C6)CN(c6ccc(C(=O)N[C@H]8CC[C@H](Oc9ccc(C#N)c(Cl)c9)CC8)nn6)C7)c5)ncc34)nn2C2CCOCC2)C1 [Compound 63, 6-[6-[2-[4-[8-(5-acetyl-1-tetrahydropyran-4-yl-6,7-dihydro-4H-pyrazolo[4,3-c]pyridin-3-yl)-3-isoquinolyl]pyrazol-1-yl]ethoxy]-2-azaspiro[3.3]heptan-2-yl]-N-[4-(3-chloro-4-cyano-phenoxy)cyclohexyl]pyridazine-3-carboxamide]
AR / CBP ternary complex; [2]
  EC50: < 1 nM
VCaP cells
  IC50: 0.1 to 1 nM

## CC(=O)N1CCc2c(c(-c3cccc4cc(-c5cnn(CCOC6CC7(C6)CN(c6ccc(C(=O)N[C@H]8CC[C@H](Oc9ccc(C#N)c(Cl)c9)CC8)nn6)C7)c5)ncc34)nn2C)C1 [Compound 64, 6-[6-[2-[4-[8-(5-acetyl-1-methyl-6,7-dihydro-4H-pyrazolo[4,3-c]pyridin-3-yl)-3-isoquinolyl]pyrazol-1-yl]ethoxy]-2-azaspiro[3.3]heptan-2-yl]-N-[4-(3-chloro-4-cyano-phenoxy)cyclohexyl]pyridazine-3-carboxamide]
AR / CBP ternary complex; [2]
  EC50: 1 to 10 nM
VCaP cells
  IC50: 0.1 to 1 nM
